Reference: patent US20260209260A1, “VECTORIZED NHC IRIDIUM(III) COMPLEXES AND USE THEREOF IN PHOTODYNAMIC THERAPY AND/OR DIAGNOSTIC” (CENTRE NATIONAL DE LA RECHERCHE SCIENTIFIQUE, priority 2022, published 2026)
Several values for one entry are separate records, joined by “and”; a condition that tells them apart may be missing. Identical values can stand only once. Like-named read-outs stand apart in the source and are kept apart here.

Experiments:
[1] = Lipophilicity: octanol-water partition coefficient, shake-flask method
Description: The octanol-water partition coefficients (P) of all the complexes were determined using a shake-flask method^8. Water (100 mL, distilled after milli-Q purification) and n-octanol (100 mL, Sigma Aldrich, ACS spectrophotometric grade, ≥99%) were shaken together for 24 h to allow saturation of both phases. Stock solutions of the compounds ([…]) were prepared in the aqueous phase. Aliquots (2 mL) of each of these stock solutions were then added to an equal volume of the n-octanol phase. The resultant biphasic solution was mixed for 15 min and then centrifuged (3000 tr/min, 5 min) to separate the phases. The concentrations of the complex in the organic and aqueous phases were then determined using UV absorbance spectroscopy (260 nm). The blank is the water saturated with n-octanol. Log P was defined as logarithm of the ratio of the concentrations of the complex in the organic and aqueous phases (values reported are the means of at least three separated determinations).
The Log P values have been determined by a classical shake-flask method.

[2] = UV/Vis absorption spectra; type: physicochemical; conditions: room temperature; for λmax (nm) ε (M^−1 · cm^−1): air-saturated CH2Cl2 or CH2Cl2/MeOH (1:1), 50 μM, ε in brackets, sh = shoulder
Description: UV/Vis absorption spectra were recorded at RT on solutions contained in quartz cuvettes (optical pathlength 1 cm, Hellma®) with a PerkinElmer® UV/VIS/NIR spectrophotometer Lambda 950 and a PerkinElmer® detector UV/VIS/NIR Accessory 2D Detector Module.

[3] = Luminescence emission spectra and quantum yield; type: physicochemical; conditions: for ΦP emission phosphorescence quantum yield: room temperature, reference POPOP in hexane or rhodamine B in ethanol
Description: Fluorescence and phosphorescence emission spectra were obtained with a HORIBA JOBIN YVON, fluromax-4 and spectrofluorometer.
Luminescence quantum yields were measured according to the method of Demas and Crosby, on solution samples at RT. The quantum yield is defined as: […]
Where ΦP is the quantum yield of the sample, ΦR is the know quantum yield of the reference standard. […].
The luminescence spectra of vectorized iridium(III) complexes were determined in CH2Cl2 at room temperature (Table 3).

[4] = Emission lifetime measurement; type: physicochemical
Description: Fluorescence lifetime measurements were performed by an Edinburgh FLS920 spectrofluorimeter equipped with a TCC900 card for data acquisition in time-correlated single-photon counting experiments (0.5 ns time resolution) with a D2 lamp and an LDH—P-C-405 pulsed diode laser. The estimated experimental error is 2 nm on the band maximum (5% on the lifetime, 10% on the fluorescence quantum yield).
The emission lifetimes of biotin-vectorized complexes (I-a) to (I-l) range from 138 ns to 411 ns, among them, the lifetime of biotin-vectorized complexes (I-c), (I-e), (I-k) are 411, 224, and 322 ns respectively. The emission lifetimes of FTS-vectorized complexes (II-a) to (II-l) range from 167 ns to 486 ns, among them, the lifetime of FTS-vectorized complexes (II-c) and (II-k) are 319 and 486 ns respectively. The emission lifetimes of PSMA-vectorized complexes (III-a) to (III-l) are in the range of 159-649 ns, among them, the lifetime of complexes (III-a) and (III-k) were 248 and 649 ns, respectively. The emission lifetimes of Fc-vectorized complexes (IV-a) to (IV-l) are in the range of 178-228 ns.

[5] = system: NIH-3T3 fibroblast cells (non-tumor); assay: Cell viability assay (MTT), dark and blue light; type: cell-based, Murine
Description: (§1) Cells were grown in humidified incubators at 37° C. in 5% CO2. Murine MC3T3 osteoblast and NIH-3T3 fibroblast cells-used as non-tumor cell models-were cultured in a-MEM medium and DMEM medium supplemented with 10% fetal bovine serum (FBS) and 1% Penicillin/Streptomycin (P/S) antibiotics, respectively. Human T24 bladder, MGHU3 bladder, Scaber bladder, A549 lung, MCF7 breast, MiaPaCa2 pancreas cancer cells were cultured in DMEM medium supplemented with 10% FBS and 1% P/S antibiotics. […] Human Hela cervix and HepG2 liver cancer cells were cultured EMEM medium supplemented with 10% FBS and 1% P/S antibiotics.
(§2) MTT reagent (3-(4,5-dimethylthiazol-2-yl)-2,5-diphenyltetrazolium bromide) was used to determine cell death as originally described by Mosmann. Briefly, cells were seeded from 5,000 to 10,000 cells/well in 24-well plates (1 mL) depending on the cell type and allowed to attach overnight. The complexes were prepared in DMSO. The concentration of the complexes was calculated based on the elemental composition of the complexes determined by the elemental analyses. All cell viability experiments were carried out with a fixed concentration of 0.1% (v/v) DMSO. After 72 h of treatment, cells were incubated at 37° C. and 5% CO2 with 25 μL of MTT solution (5 mg/ml; Sigma-Aldrich) in 24-well plates for 3 to 4 h. After solubilization with 500 μL of DMSO, formazan was quantified spectrophotometrically with a microplate reader at 570 nm absorbance (ClarioSTAR, BMG LabTech). […] All the results were calculated from data obtained in at least three independent experiments performed in triplicate.
(§3) Two sets of experiments were conducted in parallel for each complex to be studied:
(§4) 1. The cells were incubated with the different complexes (in the dark) for 72 h.
(§5) 2. The cells were incubated for 8 h with the different complexes (in the dark), then irradiated for 10 min, followed by an incubation in the dark up to 72 h.

T24 bladder cancer cells = assay: Cell viability assay (MTT), dark and blue light; type: cell-based, Human; conditions: for Photosensitizing index (PI) T24: dark vs blue light 458 nm
Description: as §1, §2, §3, §4, §5

[6] = system: MC3T3 osteoblast cells (non-tumor); assay: Cell viability assay (MTT), dark and blue light; type: cell-based, Murine; conditions: in the dark, 72 h; read-out: GI50 MC3T3 Dark
Description: as §1, §2, §3, §4, §5

[7] = n-octanol/water, shake-flask, mean of at least three determinations
[8] = 8 h in the dark, blue light 458 nm 10 min, then dark up to 72 h, read-out: GI50 NIH-3T3 Blue
[9] = in the dark, 72 h, read-out: GI50 NIH-3T3 Dark
[10] = 8 h in the dark, blue light 458 nm 10 min, then dark up to 72 h, read-out: GI50 T24 Blue
[11] = in the dark, 72 h, read-out: GI50 T24 Dark

| SMILES | Log P [1, 7] | maximum absorption, lowest-lying bands in the visible region over 360 nm ([2]; CH2Cl2 or CH2Cl2/MeOH (1:1)) | λmax (nm) ε (M^−1 · cm^−1) [2] | ΦP emission phosphorescence quantum yield [3] [%] | τ1 emission lifetime [4] [ns] | GI50 [5, 8] [µM] | GI50 [5, 9] [µM] | GI50 (T24 bladder cancer cells; [10]) | SI (vs NIH-3T3) T24 Dark (T24 bladder cancer cells) | Photosensitizing index (PI) T24 (T24 bladder cancer cells; listed as l-b) | GI50 (T24 bladder cancer cells; [11]) | Log P [1] | λem ([3]; CH2Cl2, room temperature, λexc 365 nm or 470 nm) | GI50 [6] [µM] | Photosensitizing index (PI) NIH-3T3 ([5]; dark vs blue light 458 nm) | Photosensitizing index (PI) T24 (T24 bladder cancer cells) | SI (vs NIH-3T3) T24 Blue (T24 bladder cancer cells; blue light 458 nm) |
| --- | --- | --- | --- | --- | --- | --- | --- | --- | --- | --- | --- | --- | --- | --- | --- | --- | --- |
| Cc1ccc2[c](c1)[Ir-3]13([c]4cc(C)ccc4-c4cccc[n+]41)([c]1n(CCCNC(=O)CCCC[C@@H]4SC[C@@H]5NC(=O)N[C@@H]54)cc[n+]1-c1cccc[n+]13)[n+]1ccccc1-2.F[P-](F)(F)(F)(F)F [I-b] | 0.43 ± 0.01 | around 380 nm | 314 (sh) (18240), 382 (6150) nm (M^−1 · cm^−1) | 0.5 | 177 | > 100 | > 100 | 8.3 µM | >7.3 | 1.7 | 13.7 µM | – | – | – | – | – | – |
| F[P-](F)(F)(F)(F)F.O=C(CCCC[C@@H]1SC[C@@H]2NC(=O)N[C@@H]21)NCCCn1cc[n+]2[c]1[Ir-3]13([c]4cccc5ccc6ccc[n+]1c6c45)([c]1cccc4ccc5ccc[n+]3c5c14)[n+]1ccccc1-2 [I-i] | – | – | 320 (13840), 410 (3920) nm (M^−1 · cm^−1) | <0.1 | 210 | > 100 | > 100 | 35.4 µM | – | – | – | 0.60 ± 0.06 | 522-567 nm | 50.2 | >1 | 1.4 | – |
| COC(=O)c1ccc2[c](c1)[Ir-3]13([c]4cc(C(=O)OC)ccc4-c4cccc[n+]41)([c]1n(CCCNC(=O)CCCC[C@@H]4SC[C@@H]5NC(=O)N[C@@H]54)cc[n+]1-c1cccc[n+]13)[n+]1ccccc1-2.F[P-](F)(F)(F)(F)F [I-c] | −0.78 ± 0.01 | – | 310 (sh) (16860), 358 (4090), 400 (3295) nm (M^−1 · cm^−1) | 5.9 | 411 | > 100 | > 100 | 24.9 µM and 24.5 µM | >3.7 | – | 26.7 µM and 26.9 µM | – | – | – | – | 1.1 | >4.1 |
